# Read-outs that look alike come from different tables or passages of the source.
# Target: CFTR (Homo sapiens, UniProt P13569)
# Assay: Membrane Potential Dye, Enteroid Assay B
# Format: cell-based
# Summary of the method: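 Activity given as % of a triple-combination reference (1 μM and 3 μM correctors, 300 nM acute potentiator). Enteroids were preincubated 18-24 h with compound; chloride efflux then measured 15 min by methyl oxonol fluorescence after forskolin/IBMX/Compound III stimulation in chloride-free buffer containing CaCCinh-A01 and Chicago Sky Blue.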
# [1] = Table 10, read-out: Ent. B EC50
# Chain of CFTR (P13569 with tags, fused parts or gaps DEL508-508): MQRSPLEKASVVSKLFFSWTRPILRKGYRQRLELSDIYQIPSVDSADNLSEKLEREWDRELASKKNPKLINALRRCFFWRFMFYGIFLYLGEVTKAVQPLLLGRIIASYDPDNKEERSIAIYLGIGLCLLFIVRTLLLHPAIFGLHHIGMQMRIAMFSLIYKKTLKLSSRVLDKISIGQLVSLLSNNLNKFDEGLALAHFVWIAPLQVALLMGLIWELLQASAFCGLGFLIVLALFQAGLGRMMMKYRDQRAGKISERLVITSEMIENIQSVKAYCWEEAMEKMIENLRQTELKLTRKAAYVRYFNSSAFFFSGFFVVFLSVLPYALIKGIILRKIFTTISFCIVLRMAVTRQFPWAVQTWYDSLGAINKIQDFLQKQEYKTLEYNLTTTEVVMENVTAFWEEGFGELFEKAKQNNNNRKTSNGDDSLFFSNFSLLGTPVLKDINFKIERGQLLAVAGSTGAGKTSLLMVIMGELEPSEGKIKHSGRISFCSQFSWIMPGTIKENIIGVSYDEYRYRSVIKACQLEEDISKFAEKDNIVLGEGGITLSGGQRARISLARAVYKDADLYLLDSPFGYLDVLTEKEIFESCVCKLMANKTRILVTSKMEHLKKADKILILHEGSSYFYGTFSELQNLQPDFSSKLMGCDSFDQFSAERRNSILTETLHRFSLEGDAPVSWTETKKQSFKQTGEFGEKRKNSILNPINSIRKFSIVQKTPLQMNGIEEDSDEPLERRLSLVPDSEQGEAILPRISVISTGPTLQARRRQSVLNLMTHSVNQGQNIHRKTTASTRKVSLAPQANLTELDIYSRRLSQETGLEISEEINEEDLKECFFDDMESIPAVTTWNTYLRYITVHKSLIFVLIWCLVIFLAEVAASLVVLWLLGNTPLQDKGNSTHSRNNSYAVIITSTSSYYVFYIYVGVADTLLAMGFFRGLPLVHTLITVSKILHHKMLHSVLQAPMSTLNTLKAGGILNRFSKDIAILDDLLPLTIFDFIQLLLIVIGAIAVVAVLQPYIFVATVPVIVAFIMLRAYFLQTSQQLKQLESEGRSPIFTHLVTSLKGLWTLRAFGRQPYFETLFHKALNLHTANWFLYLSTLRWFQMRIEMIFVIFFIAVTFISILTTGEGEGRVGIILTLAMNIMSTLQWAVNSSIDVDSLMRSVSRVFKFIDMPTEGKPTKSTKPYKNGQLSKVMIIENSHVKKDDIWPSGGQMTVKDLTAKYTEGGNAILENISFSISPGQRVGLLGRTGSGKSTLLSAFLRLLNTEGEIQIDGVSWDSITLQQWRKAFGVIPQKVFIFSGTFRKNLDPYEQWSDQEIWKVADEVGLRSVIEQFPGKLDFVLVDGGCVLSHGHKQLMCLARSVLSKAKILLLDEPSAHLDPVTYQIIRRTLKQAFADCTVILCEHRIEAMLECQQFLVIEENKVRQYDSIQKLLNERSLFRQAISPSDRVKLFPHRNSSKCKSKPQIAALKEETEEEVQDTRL
smiles,measurement,setting,value
"Cc1cccc(C)c1-c1cc2nc(n1)NS(=O)(=O)c1cccc(c1)C(=O)N(C1CC(NC3CCC(C)(C)CC3)C1)[C@H](CC(C)C)CO2 (stereo partly drawn) [Compound 70, (11R)-12-[3-[(4,4-Dimethylcyclohexyl)amino]cyclobutyl]-6-(2,6-dimethylphenyl)-11-isobutyl-2,2-dioxo-9-oxa-2λ^6-thia-3,5,12,19-tetrazatricyclo[12.3.1.14,8]nonadeca-1(18),4(19),5,7,14,16-hexaen-13-one]",Ent. B Max Activity (%),Table 9,+++ (+++ is >60%)
same,EC50,"Table 9, read-out: Ent. B EC50",< 1000 nM
COC(=O)N(C)[C@H]1C[C@@]2(C1)C[C@H](N1C(=O)c3cccc(c3)S(=O)(=O)Nc3nc(cc(-c4c(C)cccc4C)n3)OC[C@H]1CC1(C(F)(F)F)CC1)C2 (stereo in doubt) [Compound 259],Ent. B Max Activity (%),Table 9,+++ (+++ is >60%)
same,EC50,"Table 9, read-out: Ent. B EC50",< 1000 nM
COC(=O)N(C)[C@H]1C[C@]2(C1)C[C@H](N1C(=O)c3cccc(c3)S(=O)(=O)Nc3nc(cc(-c4c(C)cccc4C)n3)OC[C@H]1CC1(C(F)(F)F)CC1)C2 (stereo in doubt) [Compound 260],Ent. B Max Activity (%),Table 9,+++ (+++ is >60%)
same,EC50,"Table 9, read-out: Ent. B EC50",< 1000 nM
"Cc1cccc(C)c1-c1cc2nc(n1)NS(=O)(=O)c1cccc(c1)C(=O)N(C1CC(C)(OC(F)(F)F)C1)[C@H](CC(C)C)CO2 (stereo partly drawn) [Compound 50, (11R)-6-(2,6-dimethylphenyl)-11-isobutyl-12-[3-methyl-3-(trifluoromethoxy)cyclobutyl]-2,2-dioxo-9-oxa-2λ^6-thia-3,5,12,19-tetrazatricyclo[12.3.1.14,8]nonadeca-1(18),4(19),5,7,14,16-hexaen-13-one]",Ent. B Max Activity (%),Table 10,++ (++ is 30-60%)
same,EC50,[1],< 1000 nM
Cc1cccc(C)c1-c1cc2nc(n1)NS(=O)(=O)c1cccc(c1)C(=O)N([C@H]1C[C@H](OC(F)(F)C(F)(F)F)C1)[C@H](CC(C)C)CO2 [Compound 211],Ent. B Max Activity (%),Table 10,+ (+ is <300%)
Cc1cccc(C)c1-c1cc2nc(n1)NS(=O)(=O)c1cccc(c1)C(=O)N(C1CC3(CCN(C(=O)OC(C)C)CC3)C1)[C@H](CC1(C(F)(F)F)CC1)CO2 [Compound 464],Ent. B Max Activity (%),,+++ (+++ is >60%)
same,EC50,read-out: Ent. B EC50,< 1000 nM
[H][C@]1(N2C(=O)c3cccc(c3)S(=O)(=O)Nc3nc(cc(-c4c(C)cccc4C)n3)OC[C@H]2CC(C)C)C[C@@]2(C[C@H](NC(=O)CC)C2)C1 (some centres unmarked) [Compound 250],EC50,[1],< 1000 nM
"Cc1cccc(C)c1-c1cc2nc(n1)NS(=O)(=O)c1cccc(c1)C(=O)N(C1CC3(C1)CC(C)(O)C3)[C@H](CC(C)(C)C)CO2 (single isomer, unassigned) [Compound 120]",Ent. B Max Activity (%),Table 10,++ (++ is 30-60%)
same,EC50,[1],< 1000 nM
COCCN1CCC(n2cc(N3C(=O)c4cccc(c4)S(=O)(=O)Nc4nc(cc(-c5c(C)cccc5C)n4)OC[C@H]3CC(C)(C)C)cn2)CC1 [Compound 224],Ent. B Max Activity (%),Table 10,+ (+ is <300%)
Cc1cccc(C)c1-c1cc2nc(n1)NS(=O)(=O)c1cccc(c1)C(=O)N(C1CC3(C1)CC(O)(CC(C)C)C3)[C@H](CC(C)(C)C)CO2 (stereo in doubt) [Compound 404],Ent. B Max Activity (%),Table 10,+++ (+++ is >60%)
same,EC50,[1],< 1000 nM
"CO[C@H]1C[C@H]2CC(N3C(=O)c4cccc(c4)S(=O)(=O)Nc4nc(cc(-c5c(C)cccc5C)n4)OC[C@H]3CC(C)C)C[C@H]2C1 (stereo partly drawn) [Compound 37, (11R)-12-[(3aR,6aS)-5-Methoxy-1,2,3,3a,4,5,6,6a-octahydropentalen-2-yl]-6-(2,6-dimethylphenyl)-11-isobutyl-2,2-dioxo-9-oxa-2λ^6-thia-3,5,12,19-tetrazatricyclo[12.3.1.14,8]nonadeca-1(18),4(19),5,7,14,16-hexaen-13-one]",Ent. B Max Activity (%),Table 9,+++ (+++ is >60%)
same,EC50,"Table 9, read-out: Ent. B EC50",< 1000 nM
Cc1cccc(C)c1-c1cc2nc(n1)NS(=O)(=O)c1cccc(c1)C(=O)N(C1CC3(CCNC(=O)C3)C1)[C@H](CC(C)C)CO2 (some centres unmarked) [Compound 200],Ent. B Max Activity (%),Table 10,++ (++ is 30-60%)
same,EC50,[1],< 1000 nM
COCCN1CCC(N2C(=O)c3cccc(c3)S(=O)(=O)Nc3nc(cc(-c4c(C)cccc4C)n3)OC[C@H]2CC(C)C)C1 (stereo in doubt) [Compound 294],Ent. B Max Activity (%),,+++ (+++ is >60%)
same,EC50,read-out: Ent. B EC50,< 1000 nM
CCC(=O)NC1CC(N2C(=O)c3cccc(c3)S(=O)(=O)Nc3nc(cc(-c4c(C)cccc4C)n3)OC[C@H]2CC(C)(C)C)C1 (stereo in doubt) [Compound 446],Ent. B Max Activity (%),Table 9,+++ (+++ is >60%)
same,EC50,"Table 9, read-out: Ent. B EC50",< 1000 nM
Cc1cccc(C)c1-c1cc2nc(n1)NS(=O)(=O)c1cccc(c1)C(=O)N([C@H]1C[C@@H](OC(=O)Nc3ccccc3)C1)[C@H](CC(C)C)CO2 (stereo in doubt) [Compound 360],Ent. B Max Activity (%),Table 10,+++ (+++ is >60%)
same,EC50,[1],< 1000 nM
"Cc1cccc(C)c1-c1cc2nc(n1)NS(=O)(=O)c1cccc(c1)C(=O)N(C1CCN(C(=O)OC(C)C)C1)[C@H](CC(C)C)CO2 (single isomer, unassigned) [Compound 39]",Ent. B Max Activity (%),,+++ (+++ is >60%)
same,EC50,read-out: Ent. B EC50,< 1000 nM
Cc1cccc(C)c1-c1cc2nc(n1)NS(=O)(=O)c1cccc(c1)C(=O)N([C@H]1CCN(C)C1)[C@H](CC(C)C)CO2 (stereo in doubt) [Compound 296],Ent. B Max Activity (%),,+++ (+++ is >60%)
same,EC50,read-out: Ent. B EC50,3000 to 30000 nM
Cc1cccc(C)c1-c1cc2nc(n1)NS(=O)(=O)c1cccc(n1)C(=O)N(C1CC3(CCNCC3)C1)[C@H](CC(C)C)CO2 [Compound 392],Ent. B Max Activity (%),,+++ (+++ is >60%)
same,EC50,read-out: Ent. B EC50,1000 to 3000 nM
"Cc1cccc(C)c1-c1cc2nc(n1)NS(=O)(=O)c1cccc(c1)C(=O)N(C1CC(N3CCS(=O)(=O)CC3)C1)[C@H](CC(C)C)CO2 (stereo partly drawn) [Compound 72, (11R)-6-(2,6-dimethylphenyl)-12-[3-(1,1-dioxo-1,4-thiazinan-4-yl)cyclobutyl]-11-isobutyl-2,2-dioxo-9-oxa-2λ^6-thia-3,5,12,19-tetrazatricyclo[12.3.1.14,8]nonadeca-1(18),4(19),5,7,14,16-hexaen-13-one]",Ent. B Max Activity (%),Table 9,+++ (+++ is >60%)
same,EC50,"Table 9, read-out: Ent. B EC50",< 1000 nM
"Cc1cccc(C)c1-c1cc2nc(n1)NS(=O)(=O)c1cccc(c1)C(=O)N(C1CCN(C(=O)OC(C)C)C1)[C@H](CC(C)C)CO2 (single isomer, unassigned) [Compound 38]",Ent. B Max Activity (%),,++ (++ is 30-60%)
same,EC50,read-out: Ent. B EC50,< 1000 nM
"[H][C@]1(N2C(=O)c3cccc(c3)S(=O)(=O)Nc3nc(cc(-c4c(C)cccc4C)n3)OC[C@H]2CCC(C)C)C[C@@]2(C[C@H](C(C)(C)O)C2)C1 (single isomer, unassigned) [Compound 5]",Ent. B Max Activity (%),Table 10,+++ (+++ is >60%)
same,EC50,[1],< 1000 nM
Cc1cccc(C)c1-c1cc2nc(n1)NS(=O)(=O)c1cccc(c1)C(=O)N(C1CC3(CC(=O)C3)C1)[C@H](CC(C)(C)C)CO2 [Compound 352],Ent. B Max Activity (%),Table 10,+++ (+++ is >60%)
same,EC50,[1],< 1000 nM

# Reference: patent publication US20230382925A1, “MODULATORS OF CYSTIC FIBROSIS TRANSMEMBRANE CONDUCTANCE REGULATOR” (VERTEX PHARMACEUTICALS INCORPORATED, priority 2020, published 2023)
